According to US20180207078A1, “COMBINATION OF NATURAL SUBSTANCES COMPRISING AT LEAST ONE […] ACID AND AT LEAST ONE GUGGULSTERONE, AND USE THEREOF FOR COSMETIC APPLICATIONS” (OntoChem, GmbH, priority 2015, published 2018):

Legend:
3T3 pre-adipocytes = assay: Fluorescence microscopy of lipid droplets (Nile red/DAPI); type: cell-based, mouse; details: 100 μM, D0-D6, stimulation with 1 μM dexamethasone
Procedure: […] The incubation medium was then discarded and the cells were washed with PBS and stained with Nile red (10 μg/ml) and DAPI (1 μg/ml) in 50 μl/well of PBS for 20 minutes at room temperature. After removal of the staining solution, the cells were washed with PBS and fixed with 4% paraformaldehyde in PBS for 30 minutes at room temperature. Finally, the cells were washed three times with PBS and mounted on the object slide by means of Fluorescence Mounting Medium (Dako, Carpinteria, USA). The fluorescence microscopy images were taken by using a Zeiss Axio Observer.Z1 with ApoTome (Carl Zeiss Microlmaging, Jena, Germany) using the DAPI and GFP filter settings.

[1] = Resazurin-based cell viability assay; design: species or system mouse; details: mouse, mature 3T3-L1 adipocytes; 250 μM (of each compound), 24-hour treatment, 1 μM dexamethasone stimulation; read-out: reduction of cell viability (number of mature adipocytes)
Procedure: (§1) The cell viability of mature adipocytes after treatment with a test compound was measured by means of a fluorimetric Resazurin-based assay. Vital, that is to say metabolically active, cells are capable of converting Resazurin into the fluorescent derivative Resorufin (Strotmann U. J. et al., Ecotox. Environ. Safety 1993, 25, 79-89). 3T3-L1 cells were seeded into 96-well plates (5,000-10,000 cells/well) and, as described above, cultivated to maturity (D8). […] Cells treated as follows served as controls: (1) pure cell culture medium (undifferentiated control), (2) pure differentiation medium (untreated control), (3) DMSO, corresponding to the highest DMSO concentration in the test batches, in differentiation medium (DMSO control), and (4) 150 μg/ml digitonin in DMEM (cell death control). After 24 hours, the incubation medium was discarded and the cells were washed with 100 μl/well of DMEM and then incubated for 2 hours under standard culture conditions with 50 μl/well of Resazurin solution (60 μM in DMEM). Finally, the Resorufin fluorescence was detected by means of a Synergy 2 plate reader (BioTek, Winooski, USA) (excitation: 540 nm, emission: 590 nm, mirror: 550 nm). […] Finally, the cell viability, as a measure of the number and fitness of the cells, was measured by means of a Resazurin assay.

3T3-L1 mouse fibroblasts = assay: Nile red assay of cellular lipid content during adipogenesis; type: cell-based; details: for Lipid content: treatment D0-D2, read on D6, stimulated untreated cells = 100%, unstimulated = 0%; for IC50: Mus musculus, 3T3-L1, 144 h, treatment for the entire 6-day adipocyte differentiation (D0-D6), read-out: IC50 value for the inhibition of cellular lipid accumulation
Procedure: The 3T3-L1 mouse fibroblasts were cultivated in Dulbecco's modified Eagle's medium (DMEM) incl. 10% foetal calf serum (FCS) and 2 mM L-glutamine at 37° C., 95% humidity and 5% CO2.
Adipocyte differentiation and maturation was induced as described (Yang J. Y. et al., Obesity 2008, 16, 16-22; Shugart E. C. and Umek R. M., Cell Growth & Differentiation 1997, 8, 1091-1098). The cells were stimulated not only with dexamethasone, as is generally conventional, but also with cortisol, which is more physiological.
The cells were seeded into 96-well plates and cultivated to confluence. Two days after reaching cell confluence (D0=day 0), cell differentiation was induced by adding DMEM with 10% FCS, 167 nM insulin, […] and 1 μM dexamethasone or 200 nM cortisol for two days (D2). The cells were then cultivated for a further two days in DMEM with 10% FCS and 167 nM insulin (D4), followed by cultivation in DMEM/10% FCS for a further four days (D8). Ultimately, >20-30% of the cells were mature adipocytes with accumulated lipid stores.
As an indicator for the degree of adipogenesis, the lipid content of the cells (intracellular lipid droplets) was detected by means of the lipophilic colour reagent Nile red, as described (Yang J. Y. et al., Obesity 2008, 16, 16-22; Greenspan P., The Journal of Cell Biology 1985, 100, 965-973). 3T3-L1 cells (5,000-10,000 cells/well), after reaching confluence, were cultivated for a further two days in 96-well plates (D0). The cells were then treated with guggulsterone and/or glycyrrhetinic acid, individually or in combination, for days D0-D2, D2-D4, D4-D6 and D0-D6 of the adipogenesis (concentration range: 1-200 μM). The medium, with or without test substance(s), was changed or renewed every two days. Cells treated as follows served as controls: (1) pure cell culture medium (undifferentiated control), (2) pure differentiation medium (untreated control), and (3) DMSO, corresponding to the highest DMSO concentration in the test batches, in differentiation medium (DMSO control).
On day 6 (D6), the intracellular lipid accumulation (lipid droplets) was quantified by means of a Nile red assay. To that end, the cell medium was discarded and the cells were washed with 100 μl/well of PBS (pH 7.4). The cells were then incubated for 20 minutes at room temperature with 50 μl/well of Nile red in PBS (10 μg/ml). The lipid content was determined fluorometrically using a Synergy 2 plate reader (BioTek, Winooski, USA) (excitation: 485 nm, emission: 560 nm, mirror: 550 nm). Nile red selectively stains neutral lipids, for example triacylglycerides in intracellular droplets.
The lipid content, that is to say the storage of triacylglycerides in intracellular lipid droplets, is an indicator for the degree of adipogenesis. […] Since the staining reagent Nile red, upon excitation at 485 nm and fluorescence detection at 560 nm, is very selective for neutral lipids, it was thus possible specifically to measure the intracellular accumulation of triacylglycerides during advancing adipogenesis.
On day 6 of the adipogenesis (D6), the accumulation of intracellular lipid droplets was measured fluorometrically by means of a Nile red assay (excitation: 485 nm; emission: 560 nm; 550 nm mirror). The data were normalised and the lipid accumulation is given in percent; unstimulated cells were used as 0% reference, and stimulated but untreated cells were used as 100% reference.

caspases 3/7 = assay: Caspase-Glo 3/7 apoptosis assay in mature adipocytes; type: cell-based, mouse; details: 24 hours
Procedure: In order to evaluate a possible induction of apoptosis in mature adipocytes as a result of the treatment with (Z)-guggulsterone and/or glycyrrhetinic acid, a Caspase-Glo® 3/7 assay kit (Promega, Mannheim, Germany) was used.
3T3-L1 cells were seeded into 96-well plates (5,000-10,000 cells/well) and, as described above, cultivated to maturity (D8). On D8, the mature adipocytes were incubated for 24 hours under standard culture conditions with guggulsterone and/or glycyrrhetinic acid (1-250 μM). Cells treated as follows served as controls: (1) pure cell culture medium (undifferentiated control), (2) pure differentiation medium (untreated control), and (3) DMSO, corresponding to the highest DMSO concentration in the test batches, in differentiation medium (DMSO control). After 24 hours, the incubation medium was discarded, the cells were washed with 100 μl/well of DMEM, and then 150 μl/well of Caspase-Glo® 3/7 reagent in DMEM (1:1, v/v) were added. After incubation for 2 hours at room temperature, the luminescence signal of the reagent was detected by means of a Synergy 2 plate reader (BioTek, Winooski, USA).
The combination of 250 μM of each of the two compounds brought about an increase in caspase 3/7 activity by a factor of 3.5-4.0 as compared with untreated cells (FIG. 2).

mature 3T3 adipocytes = assay: Resazurin-based cell viability assay; design: species or system mouse; details: up to 250 μM, 24-hour treatment, 1 μM dexamethasone stimulation
Procedure: as §1

[2] = cited from earlier work

In the case of `CC1(C)[C@@H](O)CC[C@]2(C)[C@H]3C(=O)C=C4[C@@H]5C[C@@](C)(C(=O)O)CC[C@]5(C)CC[C@@]4(C)[C@]3(C)CC[C@@H]12` [18β-glycyrrhetinic acid], the “lipid droplets versus stimulated untreated cells” value (3T3 pre-adipocytes) is reported as “significantly fewer and smaller lipid droplets”, the cytotoxicity at 24 h, 250 μM [1] is reported as 28% and the Lipid content (3T3-L1 mouse fibroblasts; 10 μM) is reported as 98%. The Lipid content (3T3-L1 mouse fibroblasts; 40 μM) was 91%, the Lipid content (3T3-L1 mouse fibroblasts; 100 μM) was 7% and the IC50 (3T3-L1 mouse fibroblasts) was about 20 µM. The “increase in caspase 3/7 activity as compared with untreated cells” value (caspases 3/7; 250 μM (of each compound)) was 2.5-3.0 factor.

In the case of `C/C=C1\C(=O)C[C@H]2[C@@H]3CCC4=CC(=O)CC[C@]4(C)[C@H]3CC[C@]12C` [(Z)-guggulsterone], the “lipid droplets versus stimulated untreated cells” value (3T3 pre-adipocytes) is reported as “significantly fewer and smaller lipid droplets”, the “effect on cell viability” value (mature 3T3 adipocytes) is reported as “did not impair the cell viability” and the Lipid content (3T3-L1 mouse fibroblasts; 10 μM) is reported as 71%. For the same compound, the Lipid content (3T3-L1 mouse fibroblasts; 40 μM) was 26%, the Lipid content (3T3-L1 mouse fibroblasts; 100 μM) was 5% and the IC50 (3T3-L1 mouse fibroblasts) was about 5 µM. The “induction of caspases 3/7” value (caspases 3/7; dexamethasone or cortisol stimulation) was “no induction of caspases 3/7”.

For guggulsterone, the “systemic administration that is not safe” value [2] is given as “more than 30 mg/day”.
